Experimental findings from patent EP0151939A2, “Pyrimidinediones and dihydroxypyrimidines, and process for the preparation of pyrimidinedones and dihydroxypyrimidines” (BAYER AG, priority 1984, dated 1985) are described below.

Common to all, as to format: in vivo
The subject of assay [1] is Senf. Nature of the assay: Post-emergence test. As to conditions: 1 kg/ha, rated after three weeks. The source says:
(§1) Lösungsmittel: 5 Gewichtsteile Aceton Emulgator: 1 Gewichtsteil Alkylarylpolyglykolether Zur Herstellung einer zweckmäßigen Wirkstoffzubereitung vermischt man 1 Gewichtsteil Wirkstoff mit der angegebenen Menge Lösungsmittel, gibt die angegebene Menge Emulgator zu und verdünnt das Konzentrat mit Wasser auf die gewünschte Konzentration.
(§2) Mit der Wirkstoffzubereitung spritzt man Testpflanzen, welche eine Höhe von 5 - 15 cm haben so, daß die jeweils gewünschten Wirkstoffmengen pro Flächeneinheit ausgebracht werden. Die Konzentration der Spritzbrühe wird so gewählt, daß in 2000 1 Wasser/ha die jeweils gewünschten Wirkstoffmengen ausgebracht werden. Nach drei Wochen wird der Schädigungsgrad der Pflanzen bonitiert.

For assay [2], the system named is Weizen. Nature of the assay: Post-emergence test. The following applies: 1 kg/ha, rated after three weeks.
Description: as §1, §2

Assay [3] relates to Rüben. The assay is described as follows: Post-emergence test. As to conditions: 1 kg/ha, rated after three weeks.
Description: as §1, §2

Assay [4] has as its system Senf. Nature of the assay: Pre-emergence test. The following applies: 2 kg/ha, rated after three weeks. The source says:
(§3) Losungsmittel: 5 Gewichtsteile Aceton Emulgator: 1 Gewichtsteil Alkylarylpolyglykolether
(§4) Zur Herstellung einer zweckmäßigen Wirkstoffzubereitung vermischt man 1 Gewichtsteil Wirkstoff mit der angegebenen Menge Lösungsmittel, gibt die angegebene Menge Emulgator zu und verdünnt das Konzentrat mit Wasser auf die gewünschte Konzentration.
(§5) Samen der Testpflanzen werden in normalen Boden ausgesät und nach 24 Stunden mit der Wirkstoffzubereitung begossen. Dabei hält man die Wassermenge pro Flächeneinheit zweckmäßigerweise konstant. Die Wirkstoffkonzentration in der Zubereitung spielt keine Rolle, entscheidend ist nur die Aufwandmenge des Wirkstoffs pro Flächeneinheit. Nach drei Wochen wird der Schädigungsgrad der Pflanzen bonitiert.

In assay [5] the test system is Weizen. Nature of the assay: Pre-emergence test. The following applies: 2 kg/ha, rated after three weeks.
Description: as §3, §4, §5

Assay [6] relates to Hafer. The assay is described as follows: Pre-emergence test. As to conditions: 2 kg/ha, rated after three weeks.
Description: as §3, §4, §5

For assay [7], the system named is Mais. Nature of the assay: Pre-emergence test. The following applies: 2 kg/ha, rated after three weeks.
Description: as §3, §4, §5

In assay [8] the test system is Hafer. The assay is described as follows: Post-emergence test. The following applies: 1 kg/ha, rated after three weeks.
Description: as §1, §2

The subject of assay [9] is Mais. Nature of the assay: Post-emergence test. As to conditions: 1 kg/ha, rated after three weeks.
Description: as §1, §2

In assay [10] the test system is Rüben. Nature of the assay: Pre-emergence test. As to conditions: 2 kg/ha, rated after three weeks.
Description: as §3, §4, §5

Assay [11] concerns Hirse. The assay is described as follows: Pre-emergence test. As to conditions: 2 kg/ha, rated after three weeks.
Description: as §3, §4, §5

Assay [12] deals with Bohnen. Nature of the assay: Post-emergence test. As to conditions: 1 kg/ha, rated after three weeks.
Description: as §1, §2

Assay [13] deals with Baumwolle. Nature of the assay: Post-emergence test. As to conditions: 1 kg/ha, rated after three weeks.
Description: as §1, §2

Regarding `O=c1[nH]c(C(F)(F)F)c(F)c(=O)[nH]1` [Produkt aus Beispiel 5 und 14, 5-Fluor-6-trifluormethyl-2,4-(lH,3H)-pyrimidindion], the “Wirkung (Schädigungsgrad der Pflanzen)” value in assay [1] is “vollständig oder nahezu vollständig vernichtet”; in [2], “praktisch nicht”; in assay [3] it was “vollständig oder nahezu vollständig vernichtet”; in assay [4], “zum größeren Teil ver-nichtet”; in assay [5], “fast nicht”; in assay [6] it was “zum größeren Teil ver-nichtet”. In addition, in assay [7], the “Wirkung (Schädigungsgrad der Pflanzen)” value is “fast nicht”.

For `O=c1[nH]c(C(F)(F)Cl)c(Cl)c(=O)[nH]1` [Produkt aus Beispiel 15], the “Wirkung (Schädigungsgrad der Pflanzen)” value in [1] is reported as “vollständig vernichtet”; in [2], “praktisch nicht”; in assay [8] it was “praktisch nicht”; in assay [9] it was “praktisch nicht”; in assay [4], “nahezu vollständig ver-nichtet”; in [5] it was “praktisch nicht”. The “Wirkung (Schädigungsgrad der Pflanzen)” value in assay [10] is reported as “nahezu vollständig ver-nichtet”; in [6] it was “praktisch nicht”; in assay [7], “praktisch nicht”.

`O=c1[nH]c(C(F)(Cl)Cl)c(Cl)c(=O)[nH]1` [Produkt aus Beispiel 16]: the “Wirkung (Schädigungsgrad der Pflanzen)” value in assay [4] was “zum größeren Teil vernichtet”; in assay [5], “praktisch nicht”; in [6], “praktisch nicht”; in assay [11] it was “praktisch nicht”; in [7] it was “praktisch nicht”.

Take `O=c1[nH]c(C(F)(F)F)c(Cl)c(=O)[nH]1` [Produkt aus Beispiel 13, 5-Chlor-6-trifluor-2,4-(lH,3H)-pyrimidindion]: the “Wirkung (Schädigungsgrad der Pflanzen)” value in [1] was “voll-ständig oder nahezu vollständig vernichtet”; in [2] it was “praktisch nicht”; in assay [3] it was “praktisch nicht”; in assay [12], “voll-ständig oder nahezu vollständig vernichtet”; in assay [8] it was “praktisch nicht”; in assay [9], “voll-ständig oder nahezu vollständig vernichtet”. For the same compound, the “Wirkung (Schädigungsgrad der Pflanzen)” value in assay [13] was “voll-ständig oder nahezu vollständig vernichtet”.
